# Assay results from patent US20120083471A1, “Novel Compounds, Pharmaceutical Compositions Containing Same, Methods of Use for Same, and Methods for Preparing Same” (priority 2008, published 2012).
# Read-outs that look alike come from different tables or passages of the source.
# What was measured:
# [1] = target: T1, mtGPAT1 (Mus musculus, UniProt Q61586); test: In vitro mtGPAT inhibition: acylation of 14C-glycerol 3-phosphate with palmitoyl-CoA, scintillation counting; type: biochemical
# T1 construct: from tissue; host or cells: mitochondrial preparation
# T1 sequence (Q61586 1-827): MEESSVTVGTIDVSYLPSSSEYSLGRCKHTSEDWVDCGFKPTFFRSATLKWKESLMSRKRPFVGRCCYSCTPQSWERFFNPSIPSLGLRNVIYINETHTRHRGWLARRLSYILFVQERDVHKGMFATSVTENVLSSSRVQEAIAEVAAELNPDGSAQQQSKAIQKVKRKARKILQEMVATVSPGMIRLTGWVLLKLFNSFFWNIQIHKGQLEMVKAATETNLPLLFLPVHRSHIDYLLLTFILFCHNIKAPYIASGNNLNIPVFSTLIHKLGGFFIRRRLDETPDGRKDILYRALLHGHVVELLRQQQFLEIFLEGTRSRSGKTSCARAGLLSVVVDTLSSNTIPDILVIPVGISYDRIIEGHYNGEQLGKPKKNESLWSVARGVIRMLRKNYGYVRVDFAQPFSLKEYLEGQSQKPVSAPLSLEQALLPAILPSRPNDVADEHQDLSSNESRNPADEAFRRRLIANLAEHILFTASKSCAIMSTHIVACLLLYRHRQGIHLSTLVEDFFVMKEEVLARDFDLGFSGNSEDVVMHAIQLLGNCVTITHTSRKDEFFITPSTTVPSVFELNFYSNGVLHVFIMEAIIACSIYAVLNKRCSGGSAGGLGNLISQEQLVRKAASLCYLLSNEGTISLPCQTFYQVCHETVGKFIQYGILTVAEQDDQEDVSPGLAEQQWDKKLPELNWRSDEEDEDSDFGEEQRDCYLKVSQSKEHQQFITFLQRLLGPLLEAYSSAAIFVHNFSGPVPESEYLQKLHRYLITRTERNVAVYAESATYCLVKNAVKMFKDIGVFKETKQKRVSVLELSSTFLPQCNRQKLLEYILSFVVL
# Description: The compounds produced as described above were evaluated for their ability to inhibit the acylation of glycerol-3-phosphate in vitro. The acylation reaction between ^14C-labelled glycerol-3-phosphate and palmitoyl-CoA, initiated by adding mtGPAT, was measured in the presence of varying concentrations of the inhibitor by scintillation counting as described in more detail below.
# A mitochondrial preparation of glycerol 3-phosphate acyltransferase was added to the incubation mixture containing ^14C-labeled glycerol 3-phosphate, palmitoyl-CoA, and varying inhibitor concentrations to initiate the reaction. After ten min, the reaction was terminated by adding chloroform, methanol, and 1% perchloric acid. Five minutes later, more chloroform and perchloric acid were added, and the upper aqueous layer was removed. After washing three times with 1% perchloric acid, the organic layer was evaporated under nitrogen, and the amount of ^14C present was counted to determine the extent of reaction inhibition. Data points were recorded in triplicate, and IC50 values were calculated based on the amount of test inhibitor necessary to produce 50% of mtGPAT activity observed in the absence of inhibitor but in the presence of DMSO vehicle control.
# [2] = system: FAO; test: FAO (SC 150 and Max) entries of the compound data sheets
# [3] = compounds 4a-t and 7a-t, read-out: GPAT IC50
# [4] = Table 1, sulfonamides 5a-f and 13a-f, triplicate, read-out: IC50 (μM) ± SD, In Vitro Anti-mtGPAT1 Activity
# [5] = Table 2, sulfonamides 15a-i and 17a-f, triplicate, read-out: IC50 (μM) ± SD, In Vitro Anti-mtGPAT1 Activity
# [6] = Table 3, sulfonamides 21a-c and 24a-f, triplicate, read-out: IC50 (μM) ± SD, In Vitro Anti-mtGPAT1 Activity
"IC50 [1, 3] [µM]","IC50 [1, 4] [µM]",melting point [°C],SMILES,FAO SC 150 [2],other results
23.1,–,–,CCCCCCCCS(=O)(=O)Nc1cc(-c2ccccc2Cl)ccc1C(=O)O,FAS (IC50) Not Tested CPT I Stim Not Tested FAO SC 150 Neg SA/MH (MIC) ug/ml,–
20,–,–,CCCCCCCCS(=O)(=O)Nc1cc(-c2ccc(C#N)cc2)ccc1C(=O)O,FAS (IC50) Not Tested CPT I Stim Not Tested FAO SC 150 Neg SA/MH (MIC) ug/ml,–
29.2,–,–,CCCCCCCCS(=O)(=O)Nc1cc(-c2cccc(C(C)=O)c2)ccc1C(=O)O,FAS (IC50) Not Tested CPT I Stim Not Tested FAO SC 150 Neg SA/MH (MIC) ug/ml,–
19.1,–,–,CCCCCCCCS(=O)(=O)Nc1ccc(-c2ccc(OC)cc2)cc1C(=O)O,FAS (IC50) Not Tested CPT I Stim Not Tested FAO SC 150 Neg SA/MH (MIC) ug/ml,–
76.3,–,–,CCCCCCCCS(=O)(=O)Nc1ccc(-c2cccnc2)cc1C(=O)O,FAS (IC50) Not Tested CPT I Stim Not Tested FAO SC 150 Neg SA/MH (MIC) ug/ml,–
22.2,–,–,CCCCCCCCS(=O)(=O)Nc1ccc(-c2cccs2)cc1C(=O)O,FAS (IC50) Not Tested CPT I Stim Not Tested FAO SC 150 Neg SA/MH (MIC) ug/ml,–
24.6,–,–,CCCCCCCCS(=O)(=O)Nc1ccc(-c2ccc(C#N)cc2)cc1C(=O)O,FAS (IC50) Not Tested CPT I Stim Not Tested FAO SC 150 Neg SA/MH (MIC) ug/ml,–
17.2,–,–,CCCCCCCCS(=O)(=O)Nc1ccc(-c2ccc(Cl)cc2Cl)cc1C(=O)O,FAS (IC50) Not Tested CPT I Stim Not Tested FAO SC 150 Neg SA/MH (MIC) ug/ml,–
63.4,–,–,CCCCCCCCS(=O)(=O)Nc1ccc(-c2ccccc2O)cc1C(=O)O,FAS (IC50) Not Tested CPT I Stim Not Tested FAO SC 150 Neg SA/MH (MIC) ug/ml,–
31.2,–,–,CCCCCCCCS(=O)(=O)Nc1ccc(-c2ccccc2F)cc1C(=O)O,FAS (IC50) Not Tested CPT I Stim Not Tested FAO SC 150 Neg SA/MH (MIC) ug/ml,–
52,–,–,CCCCCCCCS(=O)(=O)Nc1ccc(-c2cccc(F)c2)cc1C(=O)O,FAS (IC50) Not Tested CPT I Stim Not Tested FAO SC 150 Neg SA/MH (MIC) ug/ml,–
–,72 ± 1.7,188 to 189,"CCCCCS(=O)(=O)NCc1ccc(C(=O)O)cc1 [Compound 5a, 4-(Pentylsulfonamidomethyl)benzoic acid]",–,–
–,43.9,178 to 180,"CCCCCCCCCS(=O)(=O)NCc1ccc(C(=O)O)cc1 [Compound 5b, 4-(Nonylsulfonamidomethyl)benzoic acid]",–,–
–,88.5 ± 1.7,160 to 161,"CCCCCS(=O)(=O)NCc1cccc(C(=O)O)c1 [Compound 5c, 3-(Pentylsulfonamidomethyl)benzoic acid]",–,–
–,28.5,150 to 151,"CCCCCCCCCS(=O)(=O)NCc1cccc(C(=O)O)c1 [Compound 5d, 3-(Nonylsulfonamidomethyl)benzoic acid]",–,–
–,61.9 ± 13.5,100,"CCCCCS(=O)(=O)NCc1ccccc1C(=O)O [Compound 5e, 2-(Pentylsulfonamidomethyl)benzoic acid]",–,–
–,22.7,79 to 82,"CCCCCCCCCS(=O)(=O)NCc1ccccc1C(=O)O [Compound 5f, 2-(Nonylsulfonamidomethyl)benzoic acid]",–,–
–,45.3 ± 9,127 to 128,"CCCCCS(=O)(=O)Nc1cccc(CP(=O)(O)O)c1 [Compound 13c, 3-(Pentylsulfonamido)benzylphosphonic acid]",–,–
–,23.7,149 to 150,"CCCCCCCCCS(=O)(=O)Nc1cccc(CP(=O)(O)O)c1 [Compound 13d, 3-(Nonylsulfonamido)benzylphosphonic acid]",–,–
–,47.7 ± 9.6,198 to 200,"CCCCCS(=O)(=O)Nc1ccc(CP(=O)(O)O)cc1 [Compound 13e, 4-(Pentylsulfonamido)benzylphosphonic acid]",–,–
–,–,183 to 184,"CCCCCCCCCS(=O)(=O)Nc1cccc(C(=O)O)c1 [Compound 15d, 3-(Nonylsulfonamido)benzoic acid]",–,"IC50 [1, 5]: 24.2 ± 2.9 µM"
–,–,213 to 215,"O=C(O)c1ccccc1NS(=O)(=O)c1ccccc1 [Compound 15h, 2-(Phenylsulfonamido)benzoic acid]",–,"IC50 [1, 5]: 40.5 ± 2.6 µM"
–,–,120 to 122,"CCCCCCCCCCCCCCS(=O)(=O)Nc1ccccc1C(=O)O [Compound 24b, 2-(Tetradecylsulfonamido)benzoic acid]",–,"IC50 [1, 6]: 6.9 ± 0.5 µM"
–,–,126 to 128,"CCCCCCCCCCCCCCCCS(=O)(=O)Nc1ccccc1C(=O)O [Compound 24c, 2-(Hexadecylsulfonamido)benzoic acid]",–,"IC50 [1, 6]: 7.8 ± 0.8 µM"
–,–,142 to 144,"CCCCCCCCS(=O)(=O)Nc1ccc(O)cc1C(=O)O [Compound 24e, 5-Hydroxy-2-(octylsulfonamido)benzoic acid]",–,"IC50 [1, 6]: 38.2 ± 4.1 µM"
–,–,141 to 143,"CCCCCCCCS(=O)(=O)Nc1ccc(F)cc1C(=O)O [Compound 24f, 5-Fluoro-2-(octylsulfonamido)benzoic acid]",–,"IC50 [1, 6]: 29.5 ± 2.6 µM"
